Columns and labels:
human CRTH2 [1] = molecular target: T1, human CRTH2 (Homo sapiens, UniProt Q9Y5Y4, V204A); assay: Functional antagonist BRET assay on HEK293 cells stably expressing human CRTH2-Rluc and GFP2-β-arr2; format: cell-based; set-up: expressed in transfected cells; conditions: BRET, antagonist incubated 15 minutes prior to agonist; read-out: Antag. IC50
T1 sequence (Q9Y5Y4 1-395 V204A): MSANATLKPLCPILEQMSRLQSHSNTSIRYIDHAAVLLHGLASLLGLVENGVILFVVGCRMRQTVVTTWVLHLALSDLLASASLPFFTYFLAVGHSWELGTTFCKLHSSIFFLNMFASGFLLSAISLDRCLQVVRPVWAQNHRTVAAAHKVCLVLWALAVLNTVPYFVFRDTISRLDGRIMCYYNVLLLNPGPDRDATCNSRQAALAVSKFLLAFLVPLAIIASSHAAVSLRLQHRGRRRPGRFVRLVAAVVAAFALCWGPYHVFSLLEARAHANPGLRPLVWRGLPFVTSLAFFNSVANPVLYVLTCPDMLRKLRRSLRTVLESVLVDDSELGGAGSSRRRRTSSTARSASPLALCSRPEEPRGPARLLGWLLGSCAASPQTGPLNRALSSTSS
Text: (§1) Generation/origin of the cDNA Constructs. The coding sequence of the human CRTH2 receptor (genbank accession no NM_004778) was amplified by PCR from a human hippocampus cDNA library and inserted into the pcDNA3.1(+) expression vector (invitrogen) via 5′ HindIII and 3′ EcoRI. To generate a CRTH2-Renilla luciferase (CRTH2-Rluc) fusion protein, the CRTH2 coding sequence without a STOP codon and Rluc were amplified, fused in frame by PCR and subcloned into the pcDNA3.1(+)Zeo expression vector (invitrogen). Human β-arrestin2 (β-arr2) N-terminally tagged with GFP^2 (βarr2-GFP^2) and Renilla luciferase were purchased from BioSignal Packard Inc, (Montreal, Canada). The sequence identity of the construct was verified by restriction endonuclease digests and sequencing in both directions on an ABI Prism (Applied Biosystems, Foster City, Calif.).
(§2) Cell Culture and Transfection. COS-7 cells were grown in Dulbecco's modified Eagle's medium (DMEM) 1885 supplemented with 10% fetal bovine serum, 100 units/ml penicillin, […] streptomycin, and kept at 37° C. in a 10% CO2 atmosphere. HEK293 cells were maintained in Minimum Essential medium (MEM) supplemented with 10% (v/v) heat inactivated fetal calf serum (HIFCS), 2 mM Glutamax™-I, 1% non essential amino acids (NEAA), 1% sodium pyruvate and 10 μg/ml gentamicin. For binding experiments, COS7 cells were transiently transfected with the CRTH2 receptor using a calcium phosphate-DNA coprecipitation method with the addition of chloroquine (as described by Holst et al., 2001↓). To perform the functional Bioluminescence Resonance Energy Transfer (BRET) assays, a HEK293 cell clone stably expressing βarr2-GFP^2 and CRTH2-Rluc was generated (CRTH2-HEK293 cells).
BRET assay. Functional BRET assays were performed on HEK293 cells stably expressing human CRTH2-Rluc and GFP^2-β-arr2. Prior to their use in the BRET assay cells were detached and re-suspended in D-PBS with 1000 mg/L L-Glucose at a density of 2×10^6 cells/mL. DeepBlueC™ was diluted to 50 μM in D-PBS with 1000 mg/L L-Glucose (light sensitive). 100 μL of cell suspension was transferred to wells in a 96-well microplate (white OptiPlate) and placed in the Mithras LB 940 instrument (BERTHOLD TECHNOLOGIES, Bad Wildbad, Germany). 12 μL/well agonist was then injected by injector 1 and 10 μL/well DeepBlueC™ was injected simultaneously by injector 2. Five seconds after the injections the light output from the well was measured sequentially at 400 nm and 515 nm, and the BRET signal (mBRET ratio) was calculated by the ratio of the fluorescence emitted by GFP^2-β-arr2 (515 nm) over the light emitted by the receptor-Rluc (400 nm). Antagonists were added before placing the microplates into the Mithras LB 940 and allowed to incubate for 15 minutes prior to the addition of agonist and DeepBlueC™. Compounds were dissolved in DMSO and the final DMSO concentration was kept constant at 1% in the assay.
(§3) Curve analysis was performed with the GraphPadPrism software 3.0 (Graphpad Prism Inc., San Diego, USA) and IC50 values were calculated as a measure of the antagonistic potencies.

human CRTH2 [2] = molecular target: T1, human CRTH2; assay: Receptor binding assay: [3H]PGD2 competition binding on whole COS-7 cells transiently transfected with CRTH2 (also stable HEK293 cells); set-up: expressed in transfected cells; host or cells: COS-7 (transient, calcium phosphate); conditions: competition with 0.1 nM [3H]PGD2, whole cells, 3 h at 4° C.
Text: as §1, §2
Binding assay. 24 h after transfection COS-7 cells were seeded into 96 well plates at a density of 30.000 cells/well. Competition binding experiments on whole cells were then performed about 18-24 h later using 0.1 nM [^3H]PGD2 (NEN, 172 Ci/mmol) in a binding buffer consisting of HBSS (GIBCO) and 10 mM HEPES. Competing ligands were diluted in DMSO which was kept constant at 1% (v/v) of the final incubation volume. Total and nonspecific binding were determined in the absence and presence of 10 μM PGD2. Binding reactions were routinely conducted for 3 h at 4° C. and terminated by 2 washes (100 μl each) with ice cold binding buffer. Radioactivity was determined by liquid scintillation counting in a TOPCOUNTER (Packard) following over night incubation in Microscint 20. Stable HEK293 cells were seeded at a density of 30.000 cells/well 18-24 h prior to the binding assay which was performed essentially as described for COS7 cells above. Determinations were made in duplicates.
as §3

| SMILES | IC50 (human CRTH2 [1]) [nM] | IC50 (human CRTH2 [2]) [nM] |
| --- | --- | --- |
| CC(Oc1ccc(Br)cc1C(=O)c1cnn(-c2ccccc2)c1)C(=O)O (racemic) [D37, 2-[4-Bromo-2-(1-phenyl-1H-pyrazole-4-carbonyl)phenoxy]propionic acid] | < 500 | < 500 |
| C[C@H](Oc1ccc(Br)cc1C(=O)c1cnn(-c2ccccc2)c1)C(=O)O [(S)-D37, 2(S)-[4-Bromo-2-(1-phenyl-1H-pyrazole-4-carbonyl)-phenoxy]-propionic acid] | < 500 | < 500 |
| O=C(O)COc1ccc(Br)cc1C(=O)c1cnn(-c2ccccc2)c1 [D1, 4-Bromo-2-(1-phenyl-1H-pyrazole-4-carbonyl)phenoxyacetic acid] | < 500 | < 500 |
| O=C(O)COc1ccccc1C(=O)c1cnn(-c2ccccc2)c1 [D2, 2-(1-Phenyl-1H-pyrazole-4-carbonyl)phenoxyacetic acid] | 500 to 5000 | < 500 |
| O=C(O)COc1ccc(F)cc1C(=O)c1cnn(-c2ccccc2)c1 [D3, 4-Fluoro-2-(1-phenyl-1H-pyrazole-4-carbonyl)phenoxyacetic acid] | 500 to 5000 | < 500 |
| O=C(c1cnn(-c2ccccc2)c1)c1cc(Br)ccc1OCc1nn[nH]n1 [D4, [5-Bromo-2-(2H-tetrazol-5-ylmethoxy)phenyl](1-phenyl-1H-pyrazol-4-yl)ketone] | > 5000 | < 500 |
| O=C(O)COc1ccc(-c2ccccc2)cc1C(=O)c1cnn(-c2ccccc2)c1 [D5, 3-(1-Phenyl-1H-pyrazole-4-carbonyl)biphenyl-4-yloxyacetic acid] | < 500 | < 500 |
| O=C(O)COc1ccc(Br)cc1C(=O)c1cnn(-c2ccccn2)c1 [D6, 4-Bromo-2-(1-pyridin-2-yl-1H-pyrazole-4-carbonyl)phenoxyacetic acid] | < 500 | < 500 |
| COc1ccc(-n2cc(C(=O)c3cc(Br)ccc3OCC(=O)O)cn2)cc1 [D7, 4-Bromo-2-[1-(4-methoxyphenyl)-1H-pyrazole-4-carbonyl]phenoxyacetic acid] | < 500 | < 500 |
| O=C(O)COc1ccc(-c2cc(F)cc(F)c2)cc1C(=O)c1cnn(-c2ccccc2)c1 [D8, [3′,5′-Difluoro-3-(1-phenyl-1H-pyrazole-4-carbonyl)biphenyl-4-yloxy]acetic acid] | 500 to 5000 | < 500 |
| O=C(O)COc1ccc(-c2ccc(Cl)cc2)cc1C(=O)c1cnn(-c2ccccc2)c1 [D9, [4′-Chloro-3-(1-phenyl-1H-pyrazole-4-carbonyl)biphenyl-4-yloxy]acetic acid] | < 500 | < 500 |
| O=C(O)COc1ccc(Cl)cc1C(=O)c1cnn(-c2ccccc2)c1 [D10, [4-Chloro-2-(1-phenyl-1H-pyrazole-4-carbonyl)phenoxy]acetic acid] | 500 to 5000 | < 500 |
| Cc1ccc(OCC(=O)O)c(C(=O)c2cnn(-c3ccccc3)c2)c1 [D11, [4-Methyl-2-(1-phenyl-1H-pyrazole-4-carbonyl)phenoxy]acetic acid] | 500 to 5000 | < 500 |
| O=C(O)COc1c(Cl)cc(Cl)cc1C(=O)c1cnn(-c2ccccc2)c1 [D13, [2,4-Dichloro-6-(1-phenyl-1H-pyrazole-4-carbonyl)phenoxy]acetic acid] | > 5000 | > 5000 |
| O=C(O)COc1ccc(Br)cc1C(=O)c1cnn(-c2ccccc2Cl)c1 [D14, 4-Bromo-2-[1-(2-chloro-phenyl)-1H-pyrazole-4-carbonyl]phenoxyacetic acid] | < 500 | > 5000 |
| O=C(O)COc1ccc(Br)cc1C(=O)c1cnn(-c2cccc(Cl)c2)c1 [D15, 4-Bromo-2-[1-(3-chloro-phenyl)-1H-pyrazole-4-carbonyl]phenoxyacetic acid] | < 500 | < 500 |
| O=C(O)COc1ccc(Br)cc1C(=O)c1cnn(-c2ccc(Br)cc2)c1 [D16, 4-Bromo-2-[1-(4-bromophenyl)-1H-pyrazole-4-carbonyl]phenoxyacetic acid] | < 500 | < 500 |
| O=C(O)COc1ccc(Br)cc1C(=O)c1cnn(-c2ccc(Cl)cc2)c1 [D17, 4-Bromo-2-[1-(4-chlorophenyl)-1H-pyrazole-4-carbonyl]phenoxyacetic acid] | < 500 | < 500 |
| CCc1ccccc1-n1cc(C(=O)c2cc(Br)ccc2OCC(=O)O)cn1 [D18, 4-Bromo-2-[1-(2-ethylphenyl)-1H-pyrazole-4-carbonyl]phenoxyacetic acid] | < 500 | < 500 |
| O=C(O)COc1ccc([N+](=O)[O-])cc1C(=O)c1cnn(-c2ccc(Cl)cc2)c1 [D19, 4-Nitro-2-[1-(4-chlorophenyl)-1H-pyrazole-4-carbonyl]phenoxyacetic acid] | < 500 | < 500 |
| O=C(O)COc1ccc([N+](=O)[O-])cc1C(=O)c1cnn(-c2ccccc2)c1 [D20, 4-Nitro-2-(1-phenyl-1H-pyrazole-4-carbonyl)phenoxyacetic acid] | < 500 | < 500 |
| O=C(O)COc1ccc(Br)cc1C(=O)c1cnn(-c2ccccc2Br)c1 [D21, 4-Bromo-2-[1-(2-bromophenyl)-1H-pyrazole-4-carbonyl]phenoxyacetic acid] | < 500 | < 500 |
| O=C(O)COc1ccc(Br)cc1C(=O)c1cnn(-c2ccccc2F)c1 [D22, 4-Bromo-2-[1-(2-fluorophenyl)-1H-pyrazole-4-carbonyl]phenoxyacetic acid] | < 500 | < 500 |
| O=C(O)COc1ccc(Br)cc1C(=O)c1cnn(-c2ccccc2C(F)(F)F)c1 [D23, 4-Bromo-2-[1-(2-trifluoromethylphenyl)-1H-pyrazole-4-carbonyl]phenoxyacetic acid] | < 500 | < 500 |
| O=C(O)COc1ccc(Br)cc1C(=O)c1cnn(-c2cccc(Br)c2)c1 [D24, 4-Bromo-2-[1-(3-bromophenyl)-1H-pyrazole-4-carbonyl]phenoxyacetic acid] | < 500 | < 500 |
| O=C(O)COc1ccc(Br)cc1C(=O)c1cnn(-c2cccc(C(F)(F)F)c2)c1 [D25, 4-Bromo-2-[1-(3-trifluoromethylphenyl)-1H-pyrazole-4-carbonyl]phenoxyacetic acid] | < 500 | < 500 |
| O=C(O)COc1ccc(Br)cc1C(=O)c1cc(-c2c(Cl)cccc2Cl)no1 [D98, {4-Bromo-2-[3-(2,6-dichloro-phenyl)isoxazole-5-carbonyl]phenoxy}acetic acid] | – | < 500 |

Reference: patent publication US20110269763A1, “CRTH2 receptor ligands for medicinal uses” (7TM Pharma A/S, priority 2004, published 2011)
